Publication PMC8200971, “Design, Synthesis, Biological Evaluation and Silico Prediction of Novel Sinomenine Derivatives” (Molecules, 2021)

Experiments:
[1] = test system: HepG2 (human hepatocellular carcinoma cell lines); experiment: MTT assay, growth inhibition; type: cell-based; settings: HepG2, 20 μM, 24 h
Procedure: (§1) The in vitro growth inhibitory activity of the sinomenine derivatives (5a–5k) was evaluated against different three cell lines, MCF-7, Hela, and HepG2, using sinomenine as the reference compound kept under the same conditions in an MTT assay. The inhibition ratios of synthetic compounds were determined at concentrations of 2, 20 and 200 μM.
(§2) The MCF-7 (human breast cancer cell lines), Hela (human cervical cancer cells lines), and HepG2 (human hepatocellular carcinoma cell lines) cells were used to measure the cytotoxicity of the 5a–5k series, which were provided by the Academy of Military Medical Sciences (Beijing, China). The cell lines were maintained on RPMI 1640 nutrient medium supplemented with 10% heat-inactivated fetal bovine serum, 1% L-glutamine, […] and 100 units/mL penicillin. The cells were grown at 37 °C in a humidified atmosphere with 5% CO2 and were subcultured two to three times a week.
(§3) The MTT (3-(4, 5-dimethyl thiazol-2-yl)-2, 5-diphenyl tetrazolium bromide) assay with a slight modification was used to determine the inhibition effects of substrates 5a–5k. MCF-7, Hela and HepG2 were used for testing. Briefly, cells (5.0 × 10^3 cells per well) were seeded in 100 μL of the RPMI-1640 medium in 96-well plates for 24 h, treated with drugs and complete medium in wells up to 200 μL for 24 h. RPMI-1640 samples were employed as negative controls, and cisplatin as a positive control. Four quadruplicates of each concentration for all tested compounds were evaluated in three independent assays. For this, after removing the drug containing media 100 μL, 10 μL of MTT solution was added to wells and incubated for 4 h under similar conditions. After that, the supernatant from each well was removed and the formazan crystals formed by viable cells were dissolved with DMSO (100 μL/well). At the end of incubation, optical densities at 570 nm were measured using a plate reader (BIO-TEK, USA). Cell viability was calculated based on the measured absorbance relative to the absorbance of the cells exposed to the negative control, which represented 100% cell viability.

[2] = test system: Hela (human cervical cancer cells lines); experiment: MTT assay, growth inhibition; type: cell-based; settings: 20 μM, 24 h
Procedure: as §1, §2, §3

[3] = test system: MCF-7 (human breast cancer cell lines); experiment: MTT assay, growth inhibition; type: cell-based; settings: MCF-7, 20 μM, 24 h
Procedure: as §1, §2, §3

[4] = test system: A549 (human lung adenocarcinoma cell lines); experiment: CCK8 cytotoxicity assay; type: cell-based; settings: Homo sapiens, A549, 60 h, read-out: growth inhibition ratio (mean ± SD)
Procedure: (§4) Cytotoxicity screens were performed to assess the in vitro anticancer activity of the synthesized sinomenine derivatives 6a–6l on the various cancer cell lines MCF-7, Hela, SW480, and A549, as well as on Hek293 as a normal cell line, at doses of 2.5 and 25 μM. The obtained inhibition ratios data were used to construct a heat map (Figure 3, Tables S1 and S2) in order to select compounds that exert cancer cell line-specific cytotoxicity. Then, the IC50 values of the promising compound were determined. Cisplatin was used as a reference standard. The antiproliferative activity was based on the evaluation of the percent viability using the CCK8 assay, which is a rapid and sensitive method for determining the number of viable cells in culture. In the presence of electronic coupling reagents, WST-8 can be reduced by a dehydrogenase in the mitochondria to produce a highly water-soluble orange-yellow formazan product. Its color is proportional to the proliferation of the number of viable cells and is related to cytotoxicity. Using a microplate reader to measure the OD value can indirectly reflect the number of living cells at 450 nm wavelength.
(§5) To understand structure–function relationships, these selected compounds were subjected to subsequent analyses. All six compounds (6a and 6c–6g) were further examined to determine their IC50 concentrations on the previously mentioned cell lines, and their efficacy was compared to the reference drug cisplatin. For this, six compounds and cisplatin were evaluated on Hela, MCF-7, SW480, and A549, and on noncancerous Hek293 cell lines at various concentrations for 60 h. IC50 values were calculated (Table 2).
(§6) The MCF-7 (human breast cancer cell lines), Hela (human cervical cancer cell lines), SW480 (human colon adenocarcinoma cell lines), A549 (human lung adenocarcinoma cell lines) and nontoxic normal cells Hek293 (human embryonic kidney cell lines) cells were used to measure the cytotoxicity of the 6a–6l. They were obtained from the Beijing Normal University (Beijing, China). The test cell lines were cultured in DMEM, IMDM, F12 and DMEM nutrient medium containing 10% heat-inactivated fetal bovine serum, […] and 100 units/mL penicillin in a humified, 5% (v/v) CO2 atmosphere at 37 °C.
(§7) Cell viability was estimated using the CCK8 assay. Tumor cells ([…]) viz. MCF-7, Hela, SW480, A549 and nontoxic normal cells Hek293 were seeded in medium containing Corning® 96-well tissue culture plates at confluences of […], respectively, in Incucyte ZOOM. Fresh medium (100 μL) containing different concentrations of the test sample was added after 12 h of seeding. The microtiter plates were incubated at 37 °C in a humidified incubator with 5% CO2 for 60 h. Triplicates from each concentration were used. Negative control cells were incubated without sample and cisplatin as a positive control. At the end of treatment, the numbers of viable cells were determined by the CCK8 test. In brief, the media was removed from the 96 well plates and replaced with 100 μL of fresh culture medium with 10% CCK8 solution added to each well including the untreated controls. The 96 well plates were then incubated at 37 °C and 5% CO2 for 1–4 h. Then, the absorbance was measured at 450 nm using a BMG LABTECH®-POLAR star Omega microplate reader (Ortenberg, Germany) to determine the number of viable cells, and the percentage of viability was calculated as ((ODt- ODb/ODc- ODb)) × 100%, where ODt is the mean optical density of wells treated with the tested sample, ODc is the mean optical density of wells treated with DMSO and ODb is the mean optical density of PBS wells without cells. The relation between surviving cells and drug concentrations were plotted to get the survival curve of each tumor cell line after treatment with the specified compound. […]

[5] = test system: Hela (human cervical cancer cell lines); experiment: CCK8 cytotoxicity assay; type: cell-based; settings: Homo sapiens, HeLa, 60 h, read-out: growth inhibition ratio (mean ± SD)
Procedure: as §4, §5, §6, §7

[6] = test system: MCF-7 (human breast cancer cell lines); experiment: CCK8 cytotoxicity assay; type: cell-based; settings: Homo sapiens, MCF7, 60 h, read-out: growth inhibition ratio (mean ± SD)
Procedure: as §4, §5, §6, §7

[7] = test system: SW480 (human colon adenocarcinoma cell lines); experiment: CCK8 cytotoxicity assay; type: cell-based; settings: Homo sapiens, SW480, 60 h, read-out: growth inhibition ratio (mean ± SD)
Procedure: as §4, §5, §6, §7

[8] = test system: Hek293 (human embryonic kidney cell lines); experiment: CCK8 cytotoxicity assay, normal cells; type: cell-based; settings: Homo sapiens, HEK293, 60 h, read-out: growth inhibition ratio (mean ± SD)
Procedure: as §4, §5, §6, §7

Row | Compound | inhibition ratio [1] | melting point [°C] | inhibition ratio [2] [%] | inhibition ratio [3] [%] | inhibition at 2.5 µM [4] [%] | inhibition at 25 µM [4] [%] | inhibition at 2.5 µM [5] [%] | inhibition at 25 µM [5] [%] | inhibition at 2.5 µM [6] [%] | inhibition at 25 µM [6] [%] | inhibition at 2.5 µM [7] [%] | inhibition at 25 µM [7] [%] | inhibition at 2.5 µM [8] [%] | inhibition at 25 µM [8] [%]
1 | COC1=C[C@@H]2[C@@H]3Cc4c(CN5CCCCC5)cc(OC)c(OC(=O)Cc5cccc(Cl)c5)c4[C@]2(CCN3C)CC1=O [5g, (4bR,8aS,9S)-3,7-dimethoxy-11-methyl-6-oxo-1-(piperidin-1-ylmethyl)-6,8a,9,10-tetrahydro-5H-9,4b-(epiminoethano)phenanthren-4-yl 2-(3-chlorophenyl)acetate] | more than 53.2% | 164 to 167 | – | – | – | – | – | – | – | – | – | – | – | –
2 | COC1=C[C@@H]2[C@@H]3Cc4c(CN5CCCCC5)cc(OC)c(OC(=O)Cc5ccc(Cl)cc5Cl)c4[C@]2(CCN3C)CC1=O [5i, (4bR,8aS,9S)-3,7-dimethoxy-11-methyl-6-oxo-1-(piperidin-1-ylmethyl)-6,8a,9,10-tetrahydro-5H-9,4b-(epiminoethano)phenanthren-4-yl 2-(2,4-dichlorophenyl)acetate] | 90.69% | 135 to 137 | 94.43 | 54.13 | – | – | – | – | – | – | – | – | – | –
3 | COC1=C[C@@H]2[C@@H]3Cc4c(CN5CCCCC5)cc(OC)c(OC(=O)Cc5ccc(Cl)c(Cl)c5)c4[C@]2(CCN3C)CC1=O [5j, (4bR,8aS,9S)-3,7-dimethoxy-11-methyl-6-oxo-1-(piperidin-1-ylmethyl)-6,8a,9,10-tetrahydro-5H-9,4b-(epiminoethano)phenanthren-4-yl 2-(3,4-dichlorophenyl)acetate] | 89.57% | 143 to 146 | 80.22 | 63.35 | – | – | – | – | – | – | – | – | – | –
4 | COC1=C[C@@H]2[C@@H]3Cc4c(CN5CCCC5)cc(OC)c(OC(=O)Cc5ccc([N+](=O)[O-])cc5)c4[C@]2(CCN3C)CC1=O [6j, (4bR,8aS,9S)-3,7-dimethoxy-11-methyl-6-oxo-1-(pyrrolidin-1-ylmethyl)-6,8a,9,10-tetrahydro-5H-9,4b-(epiminoethano)phenanthren-4-yl 2-(4-nitrophenyl)acetate] | – | 82 to 85 | – | – | 15.4 ± 5.6 | 38.7 ± 8.59 | 0 | 3.75 ± 0.91 | 3.64 ± 6.3 | 1.97 ± 2.75 | 0 | 0.92 ± 1.34 | 20.5 ± 6.76 | 56.1 ± 7.28
5 | COC1=C[C@@H]2[C@@H]3Cc4c(CN5CCCC5)cc(OC)c(OC(=O)Cc5ccccc5OC)c4[C@]2(CCN3C)CC1=O [6k, (4bR,8aS,9S)-3,7-dimethoxy-11-methyl-6-oxo-1-(pyrrolidin-1-ylmethyl)-6,8a,9,10-tetrahydro-5H-9,4b-(epiminoethano)phenanthren-4-yl 2-(2-methoxyphenyl)acetate] | – | 180 to 182 | – | – | 16.6 ± 2.3 | 51.9 ± 6.36 | 0 | 44.1 ± 0.92 | 0.75 ± 1.29 | 24.4 ± 11 | 3.72 ± 1.8 | 36.9 ± 0.52 | 13.9 ± 4.06 | 63.5 ± 10.2
6 | COC1=C[C@@H]2[C@@H]3Cc4c(CN5CCCC5)cc(OC)c(OC(=O)Cc5ccccc5F)c4[C@]2(CCN3C)CC1=O [6l, (4bR,8aS,9S)-3,7-dimethoxy-11-methyl-6-oxo-1-(pyrrolidin-1-ylmethyl)-6,8a,9,10-tetrahydro-5H-9,4b-(epiminoethano)phenanthren-4-yl 2-(2-fluorophenyl)acetate] | – | 178 to 180 | – | – | 13.2 ± 4.88 | 47.1 ± 5.4 | 0.61 ± 0.6 | 29 ± 1.88 | 4.61 ± 4.79 | 9.52 ± 8.26 | 3.91 ± 0.85 | 16.5 ± 0.53 | 12.7 ± 2.89 | 68.8 ± 13.3
